In US20040014637A1, “Mechanism for the inactivation of insulin receptor and uses in the treatment of type II diabetes” (McGill University, priority 1998, published 2004):
“Also recorded” adds a separate entry of the source.

Key:
[1] = tested on: 125I-hGH binding; test: 125I-hGH binding after preincubating endosomes with ATP; design: species or system rat; settings: preincubation 37° C. 15 min, percent of control
Protocol: (1992) J. Biol. Chem. 267, 11215-11221). Livers were rapidly excised, placed in ice-cold homogenizing buffer (50 mM HEPES (pH 7.4), 0.25 M sucrose, 1 mM PMSF, 1 MM MgCl2, 1 mM benzamidine) and minced before homogenization. Combined ENs and PM fractions were prepared (Faure et al. (1992) J. Biol. Chem. 267, 11215-11221) except that the buffer used throughout was that in which the livers were minced (see above). These subcellular fractions have been characterized in detail both morphologically and biochemically. […] I. et al. (1982) J. Biol. Chem. 257, 5789-5799). Protein content in the fractions was determined by a modification of Bradford's method using serum albumin as a standard (Khan, M. N. et al. […] In the present study we wished to assess whether other processes might be involved in reducing the association of intraendosomal insulin with its receptor. We examined the effect of incubating intact ENs containing IR with increasing concentrations of ATP on subsequently measured insulin and hGH binding in both solubilized and WGA-purified receptors. […] [table]

[2] = molecular target: T1, insulin receptor kinase (IRK) (Rattus norvegicus, UniProt P15127); test: Insulin receptor kinase (IRK) exogenous tyrosine kinase activity, Poly (Glu:Tyr) (4:1) substrate, WGA-purified IRK from preincubated cell fractions; type: biochemical; settings: for IRK activity of ENs containing IR (FIG. 1A): versus absence of ATP
T1 construct: from tissue; host or cells: rat liver; endosome (EN) and plasma membrane (PM) fractions
T1 sequence (P15127 27-759 limits assumed): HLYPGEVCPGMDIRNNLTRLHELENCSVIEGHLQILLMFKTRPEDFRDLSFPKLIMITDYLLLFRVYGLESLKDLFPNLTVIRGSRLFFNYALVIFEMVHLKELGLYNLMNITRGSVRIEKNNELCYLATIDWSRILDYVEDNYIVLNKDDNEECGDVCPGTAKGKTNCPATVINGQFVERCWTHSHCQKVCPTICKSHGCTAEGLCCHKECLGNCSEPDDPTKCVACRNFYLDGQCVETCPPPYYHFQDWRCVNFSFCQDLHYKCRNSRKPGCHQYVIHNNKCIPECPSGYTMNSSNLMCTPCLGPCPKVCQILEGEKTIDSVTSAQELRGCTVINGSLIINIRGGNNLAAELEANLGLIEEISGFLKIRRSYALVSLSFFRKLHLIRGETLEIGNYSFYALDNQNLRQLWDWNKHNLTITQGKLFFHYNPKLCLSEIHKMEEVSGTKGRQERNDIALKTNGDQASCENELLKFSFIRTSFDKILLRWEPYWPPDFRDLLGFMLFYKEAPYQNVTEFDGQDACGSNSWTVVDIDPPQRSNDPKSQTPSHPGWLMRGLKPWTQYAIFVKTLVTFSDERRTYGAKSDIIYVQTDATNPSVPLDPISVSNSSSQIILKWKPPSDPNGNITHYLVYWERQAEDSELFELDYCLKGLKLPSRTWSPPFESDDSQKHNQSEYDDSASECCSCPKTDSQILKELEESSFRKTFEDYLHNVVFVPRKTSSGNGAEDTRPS
T1 sequence (P15127 764-1383 limits assumed): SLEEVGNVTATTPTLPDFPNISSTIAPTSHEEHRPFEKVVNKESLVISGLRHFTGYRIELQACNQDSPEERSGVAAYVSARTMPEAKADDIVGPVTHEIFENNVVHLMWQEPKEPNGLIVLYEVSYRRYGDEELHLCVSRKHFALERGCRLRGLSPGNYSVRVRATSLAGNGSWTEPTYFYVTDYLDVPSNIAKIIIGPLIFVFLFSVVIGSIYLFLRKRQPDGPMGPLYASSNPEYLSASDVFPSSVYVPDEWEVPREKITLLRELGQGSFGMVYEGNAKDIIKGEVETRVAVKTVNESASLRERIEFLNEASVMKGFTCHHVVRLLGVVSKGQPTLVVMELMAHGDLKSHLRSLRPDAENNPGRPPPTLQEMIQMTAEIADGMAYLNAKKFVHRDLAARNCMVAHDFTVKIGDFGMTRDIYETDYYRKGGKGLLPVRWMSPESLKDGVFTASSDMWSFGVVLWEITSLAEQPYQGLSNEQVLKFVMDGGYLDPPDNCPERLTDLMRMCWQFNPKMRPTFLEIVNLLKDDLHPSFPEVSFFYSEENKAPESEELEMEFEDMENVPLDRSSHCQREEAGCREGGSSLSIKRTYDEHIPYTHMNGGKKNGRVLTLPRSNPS

[3] = molecular target: T2, insulin receptor kinase (IRK) β-subunit (Rattus norvegicus, UniProt P15127); test: 2-D phosphoamino acid analysis of the IRK β-subunit; type: biochemical; settings: ENs incubated with 1 or 5 mM γ-32P ATP, 15 min 37° C.
T2 construct: from tissue; host or cells: rat liver; endosome (EN) and plasma membrane (PM) fractions
T2 sequence (P15127 27-759 limits assumed): as the sequence (P15127 27-759 limits assumed) above
T2 sequence (P15127 764-1383 limits assumed): as the sequence (P15127 764-1383 limits assumed) above
Protocol: ENs containing IR were removed from the 0.6/1.0 M sucrose interface of the gradient used in endosomal purification, and diluted with 0.25 M sucrose to a final protein concentration of 50 μg/ml. A 30 ml aliquot was centrifuged at 200,000×gav for 40 mins prior to resuspending in 500 μl of cell-free system buffer (44 mM HEPES (pH 7.4), 0.55 M sucrose, 333 mM KCl, 11 mM NaCl, 11 mM MgCl2). Incubations were initiated by adding 500 μl of 10 mM Tricine buffer containing either 2 or 10 mM ATP at a specific activity of 0.5 mCi ^32P/mmol. After incubating for 15 min at 37° C. the reaction was stopped by adding an equal volume of ice-cold 20 mM HEPES, 0.25 M sucrose, 2 mM PMSF, 2 mM benzamidine, 4 mM Na orthovanadate and 80 mM Na fluoride. […]
Previous work has shown that serine/threonine phosphorylation of the β-subunit of the IRK results in an inhibition of IRK activity. We thus determined if incubating ENs containing IR with 5 mM ATP promotes the phosphorylation of IRK on serine and threonine residues. […]

## Nc1ncnc2c1ncn2[C@@H]1O[C@H](COP(=O)(O)OP(=O)(O)OP(=O)(O)O)[C@@H](O)[C@H]1O [ATP, adenosine 5′triphosphate]
[1]; ATP 0.1 mM
  125I-hGH specific binding, WGA-purified endosomes: 88.7 ± 3.4%
  125I-hGH specific binding, solubilized endosomes: 105.0 ± 5.1%
[1]; ATP 1 mM
  125I-hGH specific binding, WGA-purified endosomes: 93.3 ± 5.1%
  125I-hGH specific binding, solubilized endosomes: 84.4 ± 6.6%
[1]; ATP 10 mM
  125I-hGH specific binding, WGA-purified endosomes: 75.2 ± 3.5%
  125I-hGH specific binding, solubilized endosomes: 98.3 ± 3.5%
[2]; 5 mM ATP, 15 min 37° C.
  IRK activity of ENs containing IR (FIG. 1A): marked decrease
[2]; 10 mM ATP, 15 min 37° C.
  IRK activity of ENs containing IR: virtually abolished; also recorded: suppressed IRK activity completely
[2]; 0.1 and 1.0 mM ATP, 15 min 37° C.
  IRK activity of ENs containing IR (FIG. 1A): increase
[2]; PM containing IR preincubated with ATP (1 and 10 mM), 15 min 37° C.
  Activity of WGA-purified IRK from plasma membrane (PM) (FIG. 3A): augmentation of activity
[2]; preincubation 1 mM ATP 15 min, second incubation 5 mM ATP
  IRK activity after sequential incubations (FIG. 7B): marked reduction
[2]; sequential incubations in 1 mM ATP
  IRK activity after sequential incubations: no deleterious effect
[3]
  32P phosphoserine in IRK β-subunit (FIG. 5): no detectable
